Laboratory results taken from patent US11788086B2, “Antitumor compounds and tumor diagnosis” (CBMED GMBH CENTER FOR BIOMARKER RESEARCH IN MEDICINE, priority 2016, dated 2023).

Columns and labels:
[1] = system: rectum cancer PDX models; assay: Protein expression in rectum cancer PDX models under chemotherapeutic treatment; format: in vivo, mice; conditions: not statistically significant
Description: (§1) Protein expression was analyzed in NP-40 tissue lysates. Therefore normalized protein amounts were loaded onto 8% or 12.5% polyacrylamide gels in consideration of the molecular mass of the protein of interest. Electrophoresis was performed for 1.5 h at 120 V in SDS Running Buffer with the Mini-vertical electrophoresis unit (Amersham Biosciences). Then separated proteins were transferred to PVDF-membranes (Immobilin-P Transfer Membran; Millipore) using a Semi Dry Blotting Unit (JH BioInnovations) at 160 mA for 1.5 hours. Membranes were blocked with 5% non-fat dried milk (AppliChem) in Tris-buffered saline-Tween (TBS-T; 0.2 M Tris, 1.4 M NaCl, pH 7.4, 0.1% Tween) for 1 h, followed by a primary antibody incubation (overnight at 4° C.) and an 1 h secondary antibody incubation (1:3000 dilution, GE Healthcare). All primary antibodies were diluted in 5% bovine serum albumin diluted in TBS-T. Between incubation steps membranes were washed 3 times in TBS-T for 10 min. Membranes were then developed with an enhanced chemiluminescence (ECL) Western blotting system (GE healthcare) using the ChemiImager™ System (Alpha Innotech). Immunoblots were evaluated semi-quantitative using ImageJ (Schneider C A, et al. Nat Meth. 9(2012):671-5) software for densitometric analyses. Relative densities were then calculated by normalizing density values for each protein to the loading control (Actin).
(§2) Samples of patients suffering from colon cancer or GBMs were transplanted into 3 to 6 immunodeficient NOD/SCID mice. The tumor growth was monitored in a daily rhythm. At a size of about 1 cm^3, the tumors were removed and transferred to naive NMRI:nu/nu mice for chemosensitivity testing. Xenotransplanted carcinomas and metastases were treated with different standard and novel chemotherapeutic drugs. During chemosensitivity testing the tumor volume was measured regularly and used to generate growth curves. After a time period of 30-40 days the tumors were excised and analyzed by Immunoblot and Real-Time-PCR. Chemosensitivity data were kindly provided by EPO Berlin-Buch GmbH. Tumor volume of treatment in comparison to control (T/C) was calculated in percent.
To analyze protein expression of different eIF subunits under chemotherapeutic treatment, 4 rectum primary carcinoma (RPC) PDX models and 2 rectum metastasis (RM) PDX model were generated.

[2] = system: eIF protein expression; assay: eIF protein expression after chemosensitivity testings in murine GBM xenograft models (immunoblot); format: in vivo, mice; conditions: murine GBM xenografts; for eIF protein expression (eIF subunits overall): compared to PBS treated controls
Description: as §1, §2
Additionally to single treatments with each compound, combination therapies for Temozolomide/Everolimus, Temozolomide/Regorafenib and Temozolomide/Thalidomide were investigated.

[3] = system: tumor cells; conditions: eIF5A2 siRNA combined with GC7, HCC; cited from earlier work
[4] = system: colon cancer PDX models; assay: Protein expression in colon cancer patients derived xenograft (PDX) models under chemotherapeutic treatment; format: in vivo, mice; conditions: not statistically significant
Description: Protein expression was analyzed in NP-40 tissue lysates. Therefore normalized protein amounts were loaded onto 8% or 12.5% polyacrylamide gels in consideration of the molecular mass of the protein of interest. Electrophoresis was performed for 1.5 h at 120 V in SDS Running Buffer with the Mini-vertical electrophoresis unit (Amersham Biosciences). Then separated proteins were transferred to PVDF-membranes (Immobilin-P Transfer Membran; Millipore) using a Semi Dry Blotting Unit (JH BioInnovations) at 160 mA for 1.5 hours. […] Immunoblots were evaluated semi-quantitative using ImageJ (Schneider C A, et al. Nat Meth. 9(2012):671-5) software for densitometric analyses. Relative densities were then calculated by normalizing density values for each protein to the loading control (Actin).
Samples of patients suffering from colon cancer or GBMs were transplanted into 3 to 6 immunodeficient NOD/SCID mice. The tumor growth was monitored in a daily rhythm. […] During chemosensitivity testing the tumor volume was measured regularly and used to generate growth curves. After a time period of 30-40 days the tumors were excised and analyzed by Immunoblot and Real-Time-PCR. […] Tumor volume of treatment in comparison to control (T/C) was calculated in percent.

[5] = system: hepatoma cell; conditions: in vivo and in vitro; cited from earlier work
[6] = rectum metastasis (RM) PDX models

Molecule | eIF3A protein expression [1, 6] | eIF protein expression (eIF subunits overall) [2] | eIF3C protein expression ([2]; vs PBS control) | also measured
O=c1[nH]cc(F)c(=O)[nH]1 [5-FU] | trend in downregulation | – | – | –
CO[C@H]1C[C@@H]2CC[C@@H](C)[C@@](O)(O2)C(=O)C(=O)N2CCCC[C@H]2C(=O)O[C@H]([C@H](C)C[C@@H]2CC[C@@H](OCCO)[C@H](OC)C2)CC(=O)[C@H](C)/C=C(\C)[C@@H](O)[C@@H](OC)C(=O)[C@H](C)C[C@H](C)/C=C/C=C/C=C/1C [Everolimus] | – | almost no difference | upregulated | –
NCCCCCCCN=C(N)N [GC7] | – | – | – | migration ability of tumor cells [3]: effectively reduces
CCc1c2c(nc3ccc(OC(=O)N4CCC(N5CCCCC5)CC4)cc13)-c1cc3c(c(=O)n1C2)COC(=O)[C@]3(O)CC [Irinotecan] | trend in downregulation | differential effects | – | –
COC(=O)c1ccc2c(c1)NC(=O)/C2=C(\Nc1ccc(N(C)C(=O)CN2CCN(C)CC2)cc1)c1ccccc1 [Nintedanib] | trend in downregulation | – | – | eIF3J protein expression [1, 6]: tendency to be downregulated
O=C1[O][Pt]2([NH][C@@H]3CCCC[C@H]3[NH]2)[O]C1=O [Oxaliplatin] | – | – | – | mTOR protein expression ([4]; colon primary carcinoma (CPC) PDX models, vs untreated control): trend to be upregulated; eIF4G protein expression ([1]; rectum primary carcinoma (RPC) PDX): increased
CNC(=O)c1cc(Oc2ccc(NC(=O)Nc3ccc(Cl)c(C(F)(F)F)c3)c(F)c2)ccn1 [Regorafenib] | trend in downregulation | totally down-regulated | – | –
CC[C@@H](C(=O)[C@@H](C)[C@@H](O)[C@H](C)[C@@H]1O[C@@H]([C@@H](CC)C(=O)O)CC[C@@H]1C)[C@H]1O[C@]2(C=C[C@@H](O)[C@]3(CC[C@@](C)([C@H]4CC[C@](O)(CC)[C@H](C)O4)O3)O2)[C@H](C)C[C@@H]1C [Salinomycin] | – | almost no difference | upregulated | –
CNC(=O)c1cc(Oc2ccc(NC(=O)Nc3ccc(Cl)c(C(F)(F)F)c3)cc2)ccn1 [Sorafenib] | – | almost no difference | upregulated | Mcl-1 protein [5]: reduce; RAF/MEK/ERK signaling transduction pathway [5]: inhibit; eIF4E phosphorylation level [5]: reduce; hepatoma cell apoptosis [5]: induce
O=C1CCC(N2C(=O)c3ccccc3C2=O)C(=O)N1 (stereo not shown) [Thalidomide] | – | almost no difference | upregulated | –
Bevacizumab: Anti-VEGF monoclonal antibody (angiogenesis inhibitor) | trend in downregulation | – | – | eIF3K protein expression ([2]; vs PBS control): down-regulation; PTEN protein expression ([4]; CM PDX model): seemed to be decreased
